# Test results: ChEMBL document CHEMBL3885881, “DrugMatrix”
# Organism: Rattus norvegicus
# Experiment: DrugMatrix - Regimen: Daily Repeat
# Assay type: toxicity, organism-based, Sprague-Dawley
# Parameters: regimen Daily Repeat, gender Male, age 6-8 weeks
# Conditions: in vivo, po, route oral GAVAGE, vehicle 100 % WATER; for ABSOLUTE BASOPHIL / ABSOLUTE EOSINOPHIL / ABSOLUTE LYMPHOCYTE / ABSOLUTE MONOCYTE / ABSOLUTE SEGMENTED NEUTROPHIL / BASOPHIL / EOSINOPHIL / ERYTHROCYTE COUNT / HEMATOCRIT / HEMOGLOBIN / LEUKOCYTE COUNT / LYMPHOCYTE / MEAN CORPUSCULAR HEMOGLOBIN / MEAN CORPUSCULAR HEMOGLOBIN CONCENTRATION / MEAN CORPUSCULAR VOLUME / MONOCYTE / NEUTROPHIL / NUCLEATED RED BLOOD CELLS / PLATELET COUNT: tissue Blood; for ALANINE AMINOTRANSFERASE / ALBUMIN / ALKALINE PHOSPHATASE / ASPARTATE AMINOTRANSFERASE / BLOOD UREA NITROGEN / CARBON DIOXIDE / CHLORIDE / CHOLESTEROL / CREATINE PHOSPHOKINASE / CREATININE / GLUCOSE / LACTATE DEHYDROGENASE / LIPASE / PHOSPHORUS / POTASSIUM / SODIUM / TOTAL BILIRUBIN / TOTAL PROTEIN / URIC ACID: tissue Plasma
# [1] = 0.07 mg/kg, 120 h, dose level Low, time 5 day
# [2] = 0.5 mg/kg, 72 h, dose level High, time 3 day
# [3] = 0.5 mg/kg, 120 h, dose level High, time 5 day
smiles,measurement,setting,value
Cc1cc(C(C)(C)C)c(O)c(C)c1CC1=NCCN1 [OXYMETAZOLINE],ABSOLUTE BASOPHIL,[1],0 CELLS/uL
same,ABSOLUTE EOSINOPHIL,[1],196 CELLS/uL
same,ABSOLUTE LYMPHOCYTE,[1],15823.67 CELLS/uL
same,ABSOLUTE MONOCYTE,[1],436.67 CELLS/uL
same,ABSOLUTE SEGMENTED NEUTROPHIL,[1],2110.33 CELLS/uL
same,BASOPHIL,[1],0%
same,EOSINOPHIL,[1],1%
same,ERYTHROCYTE COUNT,[1],5.33 x10E6/uL
same,HEMATOCRIT,[1],33.03%
same,HEMOGLOBIN,[1],13.6 G/DL
same,LEUKOCYTE COUNT,[1],18.57 x10E3/uL
same,LYMPHOCYTE,[1],85.33%
same,MEAN CORPUSCULAR HEMOGLOBIN,[1],25.53 pg
same,MEAN CORPUSCULAR HEMOGLOBIN CONCENTRATION,[1],41.13 G/DL
same,MEAN CORPUSCULAR VOLUME,[1],61.93 fL
same,MONOCYTE,[1],2.33%
same,NEUTROPHIL,[1],11.33%
same,NUCLEATED RED BLOOD CELLS,[1],0 /100WBC
same,PLATELET COUNT,[1],1316.33 x10E3/uL
same,ALANINE AMINOTRANSFERASE,[1],45.33 u/L
same,ALBUMIN,[1],4.4 G/DL
same,ALKALINE PHOSPHATASE,[1],411.67 u/L
same,ASPARTATE AMINOTRANSFERASE,[1],82 u/L
same,BLOOD UREA NITROGEN,[1],13 mg/dL
same,CARBON DIOXIDE,[1],29 mmol/L
same,CHLORIDE,[1],101.67 MEQ/L
same,CHOLESTEROL,[1],75.33 mg/dL
same,CREATINE PHOSPHOKINASE,[1],214.67 u/L
same,CREATININE,[1],0.21 mg/dL
same,GLUCOSE,[1],167 mg/dL
same,LACTATE DEHYDROGENASE,[1],203.67 u/L
same,LIPASE,[1],10.67 u/L
same,PHOSPHORUS,[1],11.53 mg/dL
same,POTASSIUM,[1],6.21 MEQ/L
same,SODIUM,[1],142.97 MEQ/L
same,TOTAL BILIRUBIN,[1],0.13 mg/dL
same,TOTAL PROTEIN,[1],5.97 G/DL
same,URIC ACID,[1],1.73 mg/dL
same,ABSOLUTE BASOPHIL,[2],0 CELLS/uL
same,ABSOLUTE EOSINOPHIL,[2],0 CELLS/uL
same,ABSOLUTE LYMPHOCYTE,[2],15583 CELLS/uL
same,ABSOLUTE MONOCYTE,[2],59.33 CELLS/uL
same,ABSOLUTE SEGMENTED NEUTROPHIL,[2],1491 CELLS/uL
same,BASOPHIL,[2],0%
same,EOSINOPHIL,[2],0%
same,ERYTHROCYTE COUNT,[2],5.61 x10E6/uL
same,HEMATOCRIT,[2],35.17%
same,HEMOGLOBIN,[2],13.97 G/DL
same,LEUKOCYTE COUNT,[2],17.13 x10E3/uL
same,LYMPHOCYTE,[2],91%
same,MEAN CORPUSCULAR HEMOGLOBIN,[2],24.9 pg
same,MEAN CORPUSCULAR HEMOGLOBIN CONCENTRATION,[2],39.73 G/DL
same,MEAN CORPUSCULAR VOLUME,[2],62.7 fL
same,MONOCYTE,[2],0.33%
same,NEUTROPHIL,[2],8.67%
same,NUCLEATED RED BLOOD CELLS,[2],0 /100WBC
same,PLATELET COUNT,[2],1369.67 x10E3/uL
same,ALANINE AMINOTRANSFERASE,[2],42.67 u/L
same,ALBUMIN,[2],3.6 G/DL
same,ALKALINE PHOSPHATASE,[2],345.33 u/L
same,ASPARTATE AMINOTRANSFERASE,[2],79.67 u/L
same,BLOOD UREA NITROGEN,[2],16 mg/dL
same,CARBON DIOXIDE,[2],25.67 mmol/L
same,CHLORIDE,[2],105 MEQ/L
same,CHOLESTEROL,[2],70.67 mg/dL
same,CREATINE PHOSPHOKINASE,[2],215.33 u/L
same,CREATININE,[2],0.14 mg/dL
same,GLUCOSE,[2],166.67 mg/dL
same,LACTATE DEHYDROGENASE,[2],174 u/L
same,LIPASE,[2],9 u/L
same,PHOSPHORUS,[2],10.3 mg/dL
same,POTASSIUM,[2],5.92 MEQ/L
same,SODIUM,[2],144.53 MEQ/L
same,TOTAL BILIRUBIN,[2],0.2 mg/dL
same,TOTAL PROTEIN,[2],5.43 G/DL
same,URIC ACID,[2],1.73 mg/dL
same,ABSOLUTE BASOPHIL,[3],0 CELLS/uL
same,ABSOLUTE EOSINOPHIL,[3],250.33 CELLS/uL
same,ABSOLUTE LYMPHOCYTE,[3],17058 CELLS/uL
same,ABSOLUTE MONOCYTE,[3],0 CELLS/uL
same,ABSOLUTE SEGMENTED NEUTROPHIL,[3],1425 CELLS/uL
same,BASOPHIL,[3],0%
same,EOSINOPHIL,[3],1.33%
same,ERYTHROCYTE COUNT,[3],5.31 x10E6/uL
same,HEMATOCRIT,[3],33.13%
same,HEMOGLOBIN,[3],13.6 G/DL
same,LEUKOCYTE COUNT,[3],18.73 x10E3/uL
same,LYMPHOCYTE,[3],90.33%
same,MEAN CORPUSCULAR HEMOGLOBIN,[3],25.67 pg
same,MEAN CORPUSCULAR HEMOGLOBIN CONCENTRATION,[3],41.03 G/DL
same,MEAN CORPUSCULAR VOLUME,[3],62.53 fL
same,MONOCYTE,[3],0%
same,NEUTROPHIL,[3],8.33%
same,NUCLEATED RED BLOOD CELLS,[3],0 /100WBC
same,PLATELET COUNT,[3],1420 x10E3/uL
same,ALANINE AMINOTRANSFERASE,[3],47.33 u/L
same,ALBUMIN,[3],3.93 G/DL
same,ALKALINE PHOSPHATASE,[3],346 u/L
same,ASPARTATE AMINOTRANSFERASE,[3],73 u/L
same,BLOOD UREA NITROGEN,[3],14.33 mg/dL
same,CARBON DIOXIDE,[3],30 mmol/L
same,CHLORIDE,[3],104 MEQ/L
same,CHOLESTEROL,[3],72.33 mg/dL
same,CREATINE PHOSPHOKINASE,[3],164.33 u/L
same,CREATININE,[3],0.11 mg/dL
same,GLUCOSE,[3],141 mg/dL
same,LACTATE DEHYDROGENASE,[3],161 u/L
same,LIPASE,[3],10 u/L
same,PHOSPHORUS,[3],10.57 mg/dL
same,POTASSIUM,[3],6.08 MEQ/L
same,SODIUM,[3],142.83 MEQ/L
same,TOTAL BILIRUBIN,[3],0.1 mg/dL
same,TOTAL PROTEIN,[3],5.37 G/DL
same,URIC ACID,[3],1.4 mg/dL
